Where two headings read alike, the source gives them in different places.
How the values were obtained:
[1] = cited from earlier work; for Tmax: 2-PAA after oral betahistine
[2] = Pharmacokinetic profile after single oral, intranasal and intravenous betahistine in beagle dogs, Example 5; format: in vivo; details: beagle, dog, in vivo
Method: In this study, the pharmacokinetic profile of betahistine was evaluated after a single dose administration of betahistine in male and female beagle dogs (age 5-7 months; weight of 5-11 kg, within a range of 3 kg for each sex) for three routes of administration: oral, intranasal, and intravenous.
On Day 1 of the study, betahistine (BH) was delivered orally at a dose of 12 mg/kg, 24 mg/kg, or 48 mg/kg. Each treatment group comprised 8 animals (4 males and 4 females). For pharmacokinetic assessment, plasma samples were collected prior to dosing, and then at 5, 10, 20 and 30 min, 1, 2, 3, 6, 24 hours after dosing.
On Day 8 of the study, the animals that received oral BH at a dose of 12 mg/kg were administered the test betahistine composition intranasally at a dose of 40 mg betahistine dihydrochloride; the animals that received oral BH at a dose of 24 mg/kg were administered the test betahistine composition intranasally at a dose of 80 mg betahistine dihydrochloride; and the animals that received oral BH at a dose of 48 mg/kg were administered the test betahistine composition intranasally at a dose of 120 mg betahistine dihydrochloride. The test betahistine composition was delivered intranasally in a single dose via an Aptar nasal spray pump device at a total dose level of 40, 80 and 120 mg of betahistine dihydrochloride. Plasma samples were collected prior to dosing, and then at 5, 10, 20 and 30 min, 1, 2, 3, 6, 24 hours after dosing.
On Day 15 of the study, the animals that received oral BH at a dose of 12 mg/kg and the test betahistine composition intranasally at a dose of 40 mg betahistine dihydrochloride were administered a bolus intravenous injection of betahistine at a dose of 0.44 mg/kg. Plasma samples were collected prior to dosing, and then at 5, 10, 20 and 30 min, 1, 2, 3, 6, 24 hours after dosing.
Betahistine 13CD3 dihydrochloride and 2-pyridylacetic acid-D4 hydrochloride were used as respective internal standards. The calibration range for betahistine was 0.05-250 ng/mL and for 2-PAA 2.00-3000 ng/mL using a plasma sample volume of 0.50 mL.
For determination of betahistine, the method involved liquid-liquid extraction, for 2-PAA, the method involved protein precipitation. Plasma samples were prepared for betahistine by extraction under basic conditions with an organic solvent, then the organic phase was dried, reconstituted and transferred for LC/MS-MS analysis. […] Sample analysis was performed using reversed phase chromatography.

[3] = female, inhaled or intranasal, 6 mg/kg
[4] = female, inhaled or intranasal, 13 mg/kg
[5] = female, inhaled or intranasal, 17.7 mg/kg
[6] = male, inhaled or intranasal, 5 mg/kg
[7] = male, inhaled or intranasal, 9.8 mg/kg
[8] = male, inhaled or intranasal, 15.8 mg/kg

## O=C(O)Cc1ccccn1 [2-PAA, 2-pyridylacetic acid]
[1]; human, 2-PAA after oral betahistine 16 mg, Val et al.
  peak concentration: 522 ng/mL
[1]; human, Chen et al. (2003)
  Tmax: 1 h
[1]; human, Moorthy et al.
  Tmax: 1.5 h
[1]; metabolite formed by monoamine oxidase
  pharmacological activity: no pharmacological activity
[2]; [3]
  AUC(0-inf): 19000 ng·h/mL
  AUC(0-t)/D: 3170 ± 812 hr*ng/mL/(mg/kg)
  Cmax: 5570 ng/mL
  Cmax/D: 928 ng/mL/(mg/kg)
  Tmax: 0.75 h
  half-life: 2.66 h
[2]; female, inhaled or intranasal, 6 mg/kg, AUC(0-6)
  AUC(0-t): 14800 ng·h/mL
[2]; female, inhaled or intranasal, 6 mg/kg, AUC(0-t)
  AUC(0-t): 19000 ng·h/mL
[2]; [4]
  AUC(0-inf): 25300 ng·h/mL
  AUC(0-t)/D: 1940 ± 838 hr*ng/mL/(mg/kg)
  Cmax: 7030 ng/mL
  Cmax/D: 541 ng/mL/(mg/kg)
  Tmax: 1 h
  half-life: 2.97 h
[2]; female, inhaled or intranasal, 13 mg/kg, AUC(0-6)
  AUC(0-t): 19300 ng·h/mL
[2]; female, inhaled or intranasal, 13 mg/kg, AUC(0-t)
  AUC(0-t): 25200 ng·h/mL
[2]; [5]
  AUC(0-6): 10600 ng·h/mL
  AUC(0-inf): 14100 ng·h/mL
  AUC(0-t)/D: 790 ± 307 hr*ng/mL/(mg/kg)
  Cmax: 3810 ng/mL
  Cmax/D: 215 ng/mL/(mg/kg)
  T1/2: 3.46 h
[2]; female, inhaled or intranasal, 17.7 mg/kg, AUC(0-t)
  AUC(0-t): 14000 ng·h/mL
[2]; female, iv, 0.44 mg/kg
  AUC(0-6): 1540 ± 101 ng·h/mL
  AUC(0-inf): 1860 ± 188 ng·h/mL
  AUC(0-t): 1830 ± 209 ng·h/mL
  AUC(0-t)/D: 4160 ± 475 hr*ng/mL/(mg/kg)
  Cmax: 722 ± 75.3 ng/mL
  Cmax/D: 1640 ± 171 ng/mL/(mg/kg)
  T1/2: 2.78 h
  Tmax (median): 0.18 h
[2]; female, po, 12 mg/kg
  AUC(0-6): 41300 ng·h/mL
  AUC(0-int): 57200 ± 11300 ng·h/mL
  AUC(0-t): 57200 ± 11300 ng·h/mL
  AUC(0-t)/D: 4760 ± 940 hr*ng/mL/(mg/kg)
  Cmax: 14500 ng/mL
  Cmax/D: 1210 ng/mL/(mg/kg)
  T1/2: 2.12 ± 0.110 h
[2]; female, po, 24 mg/kg
  AUC(0-6): 69300 ng·h/mL
  AUC(0-int): 110000 ± 14300 ng·h/mL
  AUC(0-t): 110000 ± 14300 ng·h/mL
  AUC(0-t)/D: 4590 ± 594 hr*ng/mL/(mg/kg)
  Cmax: 21300 ng/mL
  Cmax/D: 885 ng/mL/(mg/kg)
  T1/2: 2.14 ± 0.176 h
  Tmax (median): 2 h
[2]; female, po, 48 mg/kg
  AUC(0-6): 144000 ng·h/mL
  AUC(0-int): 208000 ± 35000 ng·h/mL
  AUC(0-t): 237000 ± 63500 ng·h/mL
  AUC(0-t)/D: 4930 ± 1320 hr*ng/mL/(mg/kg)
  Cmax: 37500 ng/mL
  Cmax/D: 781 ng/mL/(mg/kg)
  T1/2: 2.24 ± 0.170 h
  Tmax (median): 2 h
[2]; [6]
  AUC(0-6): 9440 ng·h/mL
  AUC(0-inf): 12200 ng·h/mL
  AUC(0-t): 12200 ng·h/mL
  AUC(0-t)/D: 2440 ± 2160 hr*ng/mL/(mg/kg)
  Cmax: 3480 ng/mL
  Cmax/D: 695 ng/mL/(mg/kg)
  T1/2: 2.96 h
  Tmax (median): 0.5 h
[2]; [7]
  AUC(0-inf): 10400 ng·h/mL
  AUC(0-t)/D: 1060 ± 368 hr*ng/mL/(mg/kg)
  Cmax: 3320 ng/mL
  Cmax/D: 339 ng/mL/(mg/kg)
  Tmax: 1 h
  half-life: 2.86 h
[2]; male, inhaled or intranasal, 9.8 mg/kg, AUC(0-6)
  AUC(0-t): 8450 ng·h/mL
[2]; male, inhaled or intranasal, 9.8 mg/kg, AUC(0-t)
  AUC(0-t): 10400 ng·h/mL
[2]; [8]
  AUC(0-inf): 12800 ng·h/mL
  AUC(0-t)/D: 806 ± 197 hr*ng/mL/(mg/kg)
  Cmax: 3930 ng/mL
  Cmax/D: 249 ng/mL/(mg/kg)
  Tmax: 1 h
  half-life: 2.87 h
[2]; male, inhaled or intranasal, 15.8 mg/kg, AUC(0-6)
  AUC(0-t): 10200 ng·h/mL
[2]; male, inhaled or intranasal, 15.8 mg/kg, AUC(0-t)
  AUC(0-t): 12700 ng·h/mL
[2]; male, iv, 0.44 mg/kg
  AUC(0-6): 1450 ± 388 ng·h/mL
  AUC(0-inf): 1760 ± 642 ng·h/mL
  AUC(0-t): 1740 ± 641 ng·h/mL
  AUC(0-t)/D: 3960 ± 1460 hr*ng/mL/(mg/kg)
  Cmax: 736 ± 53.5 ng/mL
  Cmax/D: 1670 ± 121 ng/mL/(mg/kg)
  T1/2: 2.59 h
  Tmax (median): 0.13 h
[2]; male, po, 12 mg/kg
  AUC(0-6): 37300 ng·h/mL
  AUC(0-int): 50500 ± 21100 ng·h/mL
  AUC(0-t): 50500 ± 21100 ng·h/mL
  AUC(0-t)/D: 4210 ± 1760 hr*ng/mL/(mg/kg)
  Cmax: 12700 ng/mL
  Cmax/D: 1060 ng/mL/(mg/kg)
  T1/2: 2.21 ± 0.160 h
[2]; male, po, 24 mg/kg
  AUC(0-int): 107000 ± 28200 ng·h/mL
  AUC(0-t)/D: 4460 ± 1180 hr*ng/mL/(mg/kg)
  Cmax: 26400 ng/mL
  Cmax/D: 1100 ng/mL/(mg/kg)
  T1/2: 2.04 ± 0.107 h
  Tmax: 1.5 h
[2]; male, po, 24 mg/kg, AUC(0-6)
  AUC(0-t): 76400 ng·h/mL
[2]; male, po, 24 mg/kg, AUC(0-t)
  AUC(0-t): 107000 ± 28200 ng·h/mL
[2]; male, po, 48 mg/kg
  AUC(0-6): 178000 ng·h/mL
  AUC(0-int): 286000 ± 39300 ng·h/mL
  AUC(0-t): 286000 ± 39200 ng·h/mL
  AUC(0-t)/D: 5950 ± 817 hr*ng/mL/(mg/kg)
  Cmax: 50900 ng/mL
  Cmax/D: 1060 ng/mL/(mg/kg)
  T1/2: 2.10 ± 0.181 h
  Tmax (median): 2 h

— patent US20200022963A1, “PHARMACEUTICAL COMPOSITION COMPRISING BETAHISTINE” (Otolanum AG, priority 2017, published 2020)
